Test results taken from PMC7394479 (Journal of medicinal chemistry, 2020).
Entries after “also recorded” stand apart in the source; their conditions may differ. Read-outs that look alike come from different tables or passages of the source. One block for each compound: values may come before it.

Assays:
[1] = Mouse liver microsomal stability
[2] = Human liver microsomal stability; type: in vitro ADME; settings: 1 μM compound, 0.5 mg/mL human liver microsomes (compounds 1 and 3)
[3] = Mouse pharmacokinetics and brain-to-plasma ratio; type: in vivo
MDR1-MDCK cell line [4] = assay: Permeability across MDR1-expressed MDCK cell monolayers
human EP2 receptor = human EP2 receptor (Homo sapiens, UniProt P43116); assay: Cell-based cAMP TR-FRET assay, Schild KB against PGE2 at EP2; settings: for fold less potent than equivalent nicotinic derivative: 11a vs 8b, 11b vs 8g, 11c vs 8f; for fold less EP2 potency in comparison to 2a: comparator 2a
[5] = Metabolite identification in mouse liver microsomes; type: in vitro ADME; settings: 20 min incubation, LC-MS/MS
[6] = cited from earlier work
human DP1 receptor = target: T1, human DP1 receptor (Homo sapiens, UniProt Q13258); assay: Cell-based cAMP TR-FRET assay, Schild KB against BW245C at DP1; settings: for S.I. (DP1/EP2): selectivity index DP1 KB/EP2 KB
T1 sequence (Q13258 1-359): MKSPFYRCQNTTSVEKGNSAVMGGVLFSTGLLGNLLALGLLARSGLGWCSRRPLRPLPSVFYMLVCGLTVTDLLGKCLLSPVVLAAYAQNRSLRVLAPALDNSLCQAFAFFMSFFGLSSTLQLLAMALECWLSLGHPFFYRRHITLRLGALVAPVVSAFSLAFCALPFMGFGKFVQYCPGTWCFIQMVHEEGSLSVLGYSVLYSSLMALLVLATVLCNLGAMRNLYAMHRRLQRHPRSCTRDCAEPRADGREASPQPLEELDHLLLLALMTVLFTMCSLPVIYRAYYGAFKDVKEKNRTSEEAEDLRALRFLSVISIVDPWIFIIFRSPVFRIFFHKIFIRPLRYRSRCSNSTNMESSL

human IP receptor = human IP receptor (Homo sapiens, UniProt P43119); assay: Cell-based cAMP TR-FRET assay, Schild KB against iloprost at IP; settings: for S.I (IP/EP2): selectivity index IP KB/EP2 KB
[7] = 24 h shake flask thermodynamic solubility in neat water; type: physicochemical
[8] = Solubility in simulated gastric fluid pH 2.0 by nephelometry; type: physicochemical
human EP4 receptor = human EP4 receptor (Homo sapiens, UniProt P35408); assay: Cell-based cAMP TR-FRET assay, Schild KB against PGE2 at EP4; settings: for S.I (EP4/EP2): selectivity index EP4 KB/EP2 KB
[9] = Kinetic aqueous solubility in PBS pH 7.4 by nephelometry; type: physicochemical; settings: comparator 2a
MDR1-MDCK cell line [10] = test system: MDR1-MDCK cell line

Sequence of human IP receptor (P43119 whole entry): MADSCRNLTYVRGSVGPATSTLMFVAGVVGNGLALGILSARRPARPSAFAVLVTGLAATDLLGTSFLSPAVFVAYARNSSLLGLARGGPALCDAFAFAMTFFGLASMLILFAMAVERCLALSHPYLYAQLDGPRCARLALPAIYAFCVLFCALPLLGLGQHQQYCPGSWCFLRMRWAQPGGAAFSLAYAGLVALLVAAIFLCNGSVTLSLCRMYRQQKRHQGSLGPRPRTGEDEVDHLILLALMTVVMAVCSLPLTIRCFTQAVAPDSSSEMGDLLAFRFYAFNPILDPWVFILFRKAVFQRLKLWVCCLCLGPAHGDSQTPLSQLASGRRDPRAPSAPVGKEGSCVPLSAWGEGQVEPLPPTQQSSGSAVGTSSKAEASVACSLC
Sequence of human EP2 receptor (P43116 whole entry): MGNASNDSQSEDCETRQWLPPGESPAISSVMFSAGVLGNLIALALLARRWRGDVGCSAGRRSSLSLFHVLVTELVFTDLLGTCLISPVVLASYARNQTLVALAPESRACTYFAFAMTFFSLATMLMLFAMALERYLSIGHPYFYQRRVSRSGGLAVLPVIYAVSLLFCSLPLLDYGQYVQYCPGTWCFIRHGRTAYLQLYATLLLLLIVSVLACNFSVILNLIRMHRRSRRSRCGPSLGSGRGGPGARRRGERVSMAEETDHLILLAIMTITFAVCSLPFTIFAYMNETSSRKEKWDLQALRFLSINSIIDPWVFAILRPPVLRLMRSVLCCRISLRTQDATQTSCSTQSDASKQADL
Sequence of human EP4 receptor (P35408 whole entry): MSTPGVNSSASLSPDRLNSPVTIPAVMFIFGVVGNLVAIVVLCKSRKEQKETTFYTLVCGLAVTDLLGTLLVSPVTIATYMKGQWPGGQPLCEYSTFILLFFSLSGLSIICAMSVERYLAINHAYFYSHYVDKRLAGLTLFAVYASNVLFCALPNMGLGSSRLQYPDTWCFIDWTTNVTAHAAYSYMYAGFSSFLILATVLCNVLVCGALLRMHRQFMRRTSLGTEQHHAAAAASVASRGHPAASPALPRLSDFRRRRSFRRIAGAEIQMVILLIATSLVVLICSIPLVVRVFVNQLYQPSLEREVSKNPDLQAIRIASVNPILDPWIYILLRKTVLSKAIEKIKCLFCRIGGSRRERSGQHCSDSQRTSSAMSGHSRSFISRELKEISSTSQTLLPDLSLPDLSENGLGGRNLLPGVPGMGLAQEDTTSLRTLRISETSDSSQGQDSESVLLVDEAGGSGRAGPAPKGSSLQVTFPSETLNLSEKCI

SMILES: COc1cc(/C=C/C(=O)NCCn2c(C(F)(F)F)cc3ccccc32)cc(OC)c1OC [compound 1]
HLM t1/2 [2]: 11 min
MLM t1/2 ([1]; 1 μM compound, 0.5 mg/mL mouse liver microsomes (compounds 1 and 3)): 10 min
In vivo plasma t1/2 ([3]; mice, ip/po, 10 mg/kg dose): 1.7 (ip/po, 10 mg/kg dose) h
Permeability across MDR1-MDCK cell line, A-B (MDR1-MDCK cell line [4]; apical-to-basolateral): 2.54e-05 cm/s
Permeability across MDR1-MDCK cell line, B-A (MDR1-MDCK cell line [4]; basolateral-to-apical): 2.71e-05 cm/s

SMILES: COc1cccc(-c2ccc(C(=O)NCCc3c(C)[nH]c4ccccc34)nc2)c1 [11a, 5-(3-Methoxyphenyl)-N-(2-(2-methyl-1H-indol-3-yl)ethyl)picolinamide]
fold less potent than equivalent nicotinic derivative (human EP2 receptor): 4 fold

SMILES: Cc1[nH]c2ccccc2c1CCNC(=O)c1ccc(-c2nnn[nH]2)cc1 [compound 3]
metabolic fragments in mouse liver microsomes [5]: did not produce any fragments even after 20 minutes of incubation; also recorded: has not shown any metabolic fragments even after 20 min of incubation
stability in mouse liver microsomes [6]: > 60 min

SMILES: Cc1cc(C)nc(Nc2ncc(C(=O)NCCc3c(C)[nH]c4c(Cl)cc(Cl)cc34)cn2)c1.Cl [24d.HCl]
Water solubility of corresponding HCl salt ([7]; HCl salt, neat water, 2 mg/mL, 24 h shake flask, HPLC): c The solubility of compounds measured in simulated gastric fluid at pH 2.0 by nephelometry. Compound 24dis a milky-white solution in DMSO and 24 h is an inactive compound. Therefore, their solubility is not determined by nephelometry, however, 24d.HClis highly water soluble.

SMILES: Cc1[nH]c2ccccc2c1CCNC(=O)c1ccc(N2CCOCC2)cc1 [2a]
half-life at 1 μM ([1]; mouse, pooled liver microsomes): < 2 min
half-life in mouse liver microsomes [6]: < 2 min

SMILES: Cc1[nH]c2ccccc2c1CCNC(=O)c1ccc(-c2ccccc2F)nc1 [8e, 6-(2-Fluorophenyl)-N-(2-(2-methyl-1H-indol-3-yl)ethyl)nicotinamide]
fold less EP2 potency in comparison to 2a (human EP2 receptor): 2 fold
fold less EP2 potency in comparison to 8c (human EP2 receptor; comparator 8c (14b: vs. 14c or 8c)): 4 fold

SMILES: Cc1cc(C)nc(Nc2ncc(C(=O)NCCc3c(C)[nH]c4ccccc34)cn2)c1.Cl [20o.HCl, 2-((4,6-Dimethylpyridin-2-yl)amino)-N-(2-(2-methyl-1H-indol-3-yl)ethyl)pyrimidine-5-carboxamide.Hydrochloride]
water pH after dissolving the compound ([7]; 2 mg/mL in neat water, starting pH 6.4): 3.5

SMILES: Cc1[nH]c2ccccc2c1CCNC(=O)c1ccc(N2CCOCC2)nc1 [2b, N-(2-(2-Methyl-1H-indol-3-yl)ethyl)-6-morpholinonicotinamide]
fold increased aqueous solubility [9]: 3 fold
fold less EP2 potency in comparison to 2a (human EP2 receptor): 4 fold

SMILES: COc1cc(OC)cc(-c2ccc(C(=O)NCCc3c(C)[nH]c4ccccc34)nc2)c1 [11b, 5-(3,5-Dimethoxyphenyl)-N-(2-(2-methyl-1H-indol-3-yl)ethyl)picolinamide]
fold less potent than equivalent nicotinic derivative (human EP2 receptor): 11 fold

SMILES: Cc1cc(C)nc(Nc2ncc(C(=O)NCCc3c(C)[nH]c4ccccc34)cn2)c1 [20o, 2-((4,6-Dimethylpyridin-2-yl)amino)-N-(2-(2-methyl-1H-indol-3-yl)ethyl)pyrimidine-5-carboxamide]
solubility [8]: > 250 µM
efflux pump substrate status (MDR1-MDCK cell line [10]): not the substrate of efflux pumps
Permeability across MDR1-MDCK cell line, A-B (MDR1-MDCK cell line [10]; dog): B-A: 22.2 × 10^−6 cm/s A-B: 13.2 × 10^−6 cm/s
Permeability across MDR1-MDCK cell line, B-A (MDR1-MDCK cell line [10]; dog): B-A: 22.2 × 10^−6 cm/s A-B: 13.2 × 10^−6 cm/s

The remaining lines, values ahead:

fold higher half-life in mouse liver microsomes ([1]; 24i vs 20o, 20c vs 20b, 20f vs 20e): 8 fold
SMILES: Cc1[nH]c2ccccc2c1CCNC(=O)c1cnc(Nc2cccc(F)n2)nc1 [20f, 2-((6-Fluoropyridin-2-yl)amino)-N-(2-(2-methyl-1H-indol-3-yl)ethyl)pyrimidine-5-carboxamide]

fold reduced EP2 potency in comparison to 20b (human EP2 receptor; comparator 20b): 20 fold
SMILES: CC(=O)c1ccc(Nc2ncc(C(=O)NCCc3c(C)[nH]c4ccccc34)cn2)nc1 [20l, 2-((5-Acetylpyridin-2-yl)amino)-N-(2-(2-methyl-1H-indol-3-yl)ethyl)pyrimidine-5-carboxamide]

fold reduced EP2 potency (human EP2 receptor; comparator not clearly stated): 10 fold
SMILES: Cc1ccc(Nc2ncc(C(=O)NCCc3c(C)[nH]c4ccccc34)cn2)c(C)n1 [20r, 2-((2,6-Dimethylpyridin-3-yl)amino)-N-(2-(2-methyl-1H-indol-3-yl)ethyl)pyrimidine-5-carboxamide]

EP2 potency in words (human EP2 receptor): eliminated the potency
SMILES: Cc1cc(C)nc(Nc2ncc(C(=O)NCC(=O)c3c(C)[nH]c4ccccc34)cn2)c1 [24h, 2-((4,6-Dimethylpyridin-2-yl)amino)-N-(2-(2-methyl-1H-indol-3-yl)-2-oxoethyl)pyrimidine-5-carboxamide]

S.I. (DP1/EP2) (human DP1 receptor): >900
S.I (IP/EP2) (human IP receptor): >900
SMILES: Cc1[nH]c2ccccc2c1CCNC(=O)c1cnc(Nc2ccccn2)nc1 [20a, N-(2-(2-Methyl-1H-indol-3-yl)ethyl)-2-(pyridin-2-ylamino)pyrimidine-5-carboxamide]

S.I (IP/EP2) (human IP receptor): 730
solubility ([8]; simulated gastric fluid): > 100 µM
S.I (EP4/EP2) (human EP4 receptor): 517
SMILES: COc1ccccc1-c1ncc(C(=O)NCCc2c(C)[nH]c3ccccc23)cn1 [14a, 2-(2-Methoxyphenyl)-N-(2-(2-methyl-1H-indol-3-yl)ethyl)pyrimidine-5-carboxamide]

S.I (IP/EP2) (human IP receptor): >1500
S.I (EP4/EP2) (human EP4 receptor): >1500
SMILES: Cc1cccc(Nc2ncc(C(=O)NCCc3c(C)[nH]c4ccccc34)cn2)n1 [20e, N-(2-(2-Methyl-1H-indol-3-yl)ethyl)-2-((6-methylpyridin-2-yl)amino)pyrimidine-5-carboxamide]

S.I (IP/EP2) (human IP receptor): >1500
S.I (EP4/EP2) (human EP4 receptor): >1500
in vivo stability in words ([3]; mouse, in vivo): unstable in vivo
SMILES: Cc1[nH]c2ccccc2c1CCNC(=O)c1cnc(Nc2cc(F)ccn2)nc1 [20c, 2-((4-Fluoropyridin-2-yl)amino)-N-(2-(2-methyl-1H-indol-3-yl)ethyl)pyrimidine-5-carboxamide]

Kb (human IP receptor): > 10 µM
S.I (IP/EP2) (human IP receptor): >350
Kb (human EP4 receptor): > 10 µM
S.I (EP4/EP2) (human EP4 receptor): >350
SMILES: Cc1cc(C)nc(Nc2ncc(C(=O)NCCc3c(C)[nH]c4ccc(Cl)cc34)cn2)c1 [24b, N-(2-(5-Chloro-2-methyl-1H-indol-3-yl)ethyl)-2-((4,6-dimethylpyridin-2-yl)amino)pyrimidine-5-carboxamide]

EP2 potency in words (human EP2 receptor): complete loss of potency
SMILES: Cc1[nH]c2ccccc2c1CCNC(=O)c1cnc(Nc2ccncc2)nc1 [20p, N-(2-(2-Methyl-1H-indol-3-yl)ethyl)-2-(pyridin-4-ylamino)pyrimidine-5-carboxamide]

fold reduced EP2 potency in comparison to 20o (human EP2 receptor; comparator 20o): 8 fold
SMILES: Cc1cc(C)nc(Nc2ncc(C(=O)NCCc3c(C(F)(F)F)[nH]c4ccccc34)cn2)c1 [24f, 2-((4,6-Dimethylpyridin-2-yl)amino)-N-(2-(2-(trifluoromethyl)-1H-indol-3-yl)ethyl)pyrimidine-5-carboxamide]

Kb (human IP receptor): > 10 µM
S.I (IP/EP2) (human IP receptor): >1200
Kb (human EP4 receptor): > 10 µM
S.I (EP4/EP2) (human EP4 receptor): >1200
SMILES: Cc1[nH]c2ccccc2c1CCNC(=O)c1cnc(Nc2cccnc2)nc1 [20q, N-(2-(2-Methyl-1H-indol-3-yl)ethyl)-2-(pyridin-3-ylamino)pyrimidine-5-carboxamide]

Kb (human DP1 receptor): > 10 µM
S.I. (DP1/EP2) (human DP1 receptor): >1280
Kb (human IP receptor): > 10 µM
S.I (IP/EP2) (human IP receptor): >1280
SMILES: COc1cccc(Nc2ncc(C(=O)NCCc3c(C)[nH]c4ccccc34)cn2)n1 [20h, 2-((6-Methoxypyridin-2-yl)amino)-N-(2-(2-methyl-1H-indol-3-yl)ethyl)pyrimidine-5-carboxamide]

Kb (human IP receptor): > 10 µM
S.I (IP/EP2) (human IP receptor): >500
solubility ([8]; simulated gastric fluid): > 100 µM
SMILES: Cc1cc(C)nc(Nc2ncc(C(=O)NCCc3c(C)[nH]c4c(F)cc(F)cc34)cn2)c1 [24c, N-(2-(5,7-Difluoro-2-methyl-1H-indol-3-yl)ethyl)-2-((4,6-dimethylpyridin-2-yl)amino)pyrimidine-5-carboxamide]
